Values of other authors as cited in US7189730B2, “A2A adenosine receptor antagonists” (CV Therapeutics, Inc., priority 2001, dated 2007).

How the values were obtained:
[1] = system: experimentally induced cataleptic responses; details: in vivo
[2] = system: haloperidol-induced catalepsy; details: rat; Mandhane et al. 1997
[3] = system: Parkinson's patients

## CCCn1c(=O)c2c(nc(/C=C/c3ccc(OC)c(OC)c3)n2C)n(CCC)c1=O [KF 17837]
[1]
  effect on experimentally induced cataleptic responses: ameliorates

## N[C@@H](Cc1ccc(O)c(O)c1)C(=O)O [L-DOPA]
[2]
  effect on haloperidol-induced catalepsy: block

## Cn1c(=O)c2[nH]cnc2n(C)c1=O [theophylline]
[3]
  improvement of symptoms in Parkinson's patients: significant improvement of symptoms
